Consider one compound from ChEMBL document CHEMBL1649146, “Contribution of the autolysin AtlA to the bactericidal activity of amoxicillin against Enterococcus faecalis JH2-2” (2009).

The test system of experiment [1] is Enterococcus faecalis. As to the kind of experiment: Antibacterial activity against Enterococcus faecalis JH2-2 infected in New Zealand White rabbit assessed as bacterial count per gram vegetation at 50 mg/kg, im TID for 3 days administered 48 hrs post bacterial challenge (reference value: 9.40+/-0.62 log10 CFU/g). It counts as functional. As to conditions: route intramuscular.

Experiment [2] deals with Enterococcus faecalis. As to the kind of experiment: Ratio of MBC to MIC in atlA-deficient Enterococcus faecalis JH2-2. It counts as functional.
Experiment [3] has as its system Enterococcus faecalis. In words: Antibacterial activity against atlA-deficient Enterococcus faecalis JH2-2 assessed as decrease in bacterial count at 2 ug/ml by macrodilution method. Also noted: scale not given: the % may be the effect or the level left. The experiment is classed as functional.
In experiment [4] the test system is Enterococcus faecalis. As to the kind of experiment: Antibacterial activity against Enterococcus faecalis JH2-2 assessed as decrease in decrease in bacterial count at 2 ug/ml after 24 hrs by macrodilution method. It counts as functional.
The subject of experiment [5] is Enterococcus faecalis. As to the kind of experiment: Antibacterial activity against atlA-deficient Enterococcus faecalis JH2-2 assessed as decrease in decrease in bacterial count at 2 ug/ml after 24 hrs by macrodilution method. The experiment is classed as functional.
In experiment [6] the test system is Enterococcus faecalis. As to the kind of experiment: Antibacterial activity against Enterococcus faecalis JH2-2 assessed as bacterial killing at 2 ug/ml by macrodilution method. The experiment is classed as functional, organism-based.
In experiment [7] the test system is Enterococcus faecalis. In words: Antibacterial activity against atlA-deficient Enterococcus faecalis JH2-2 by macrodilution method. The experiment is classed as functional.
Experiment [8] has as its system Enterococcus faecalis. As to the kind of experiment: Antibacterial activity against Enterococcus faecalis JH2-2 assessed as decrease in decrease in bacterial count at 2 ug/ml after 3 hrs by macrodilution method. It counts as functional.
In experiment [9] the test system is Enterococcus faecalis. In words: Antibacterial activity against atlA-deficient Enterococcus faecalis JH2-2 assessed as decrease in decrease in bacterial count at 2 ug/ml after 6 hrs by macrodilution method. The experiment is classed as functional.
The subject of experiment [10] is Enterococcus faecalis. In words: Antibacterial activity against atlA-deficient Enterococcus faecalis JH2-2 assessed as bacterial killing at 2 ug/ml by macrodilution method. It counts as functional, organism-based.
The test system of experiment [11] is Enterococcus faecalis. As to the kind of experiment: Antibacterial activity against atlA-deficient Enterococcus faecalis JH2-2 infected in New Zealand White rabbit assessed as bacterial count per gram vegetation at 50 mg/kg, im TID for 3 days administered 48 hrs post bacterial challenge (reference value: 8.34+/-1.66 log10 CFU/g). The conditions noted are these: route intramuscular. It counts as functional.

Experiment [12] relates to Enterococcus faecalis. As to the kind of experiment: Antibacterial activity against Enterococcus faecalis JH2-2 assessed as decrease in decrease in bacterial count at 2 ug/ml after 6 hrs by macrodilution method. The experiment is classed as functional.
The test system of experiment [13] is Enterococcus faecalis. As to the kind of experiment: Antibacterial activity against atlA-deficient Enterococcus faecalis JH2-2 assessed as decrease in decrease in bacterial count at 2 ug/ml after 3 hrs by macrodilution method. It counts as functional.
In experiment [14] the test system is Enterococcus faecalis. In words: Antibacterial activity against Enterococcus faecalis JH2-2 by macrodilution method. The experiment is classed as functional.
Experiment [15] has as its system Enterococcus faecalis. In words: Ratio of MBC to MIC in Enterococcus faecalis JH2-2. The experiment is classed as functional.

Converted amounts (≈) assume the structure as drawn. The source made the active and inactive calls. The calls are words filed in the database; no cut-off is given here.

Take `CC1(C)S[C@@H]2[C@H](NC(=O)[C@H](N)c3ccc(O)cc3)C(=O)N2[C@H]1C(=O)O` [AMOXICILLIN]: the log10CFU/g came to 7.69 in the experiment with Enterococcus faecalis [1] and 8.55 in the experiment on Enterococcus faecalis [11]. In addition, the Ratio result in the experiment on Enterococcus faecalis [2] was “>=32”; in the experiment with Enterococcus faecalis [15] it was 4. The Activity entry in the experiment on Enterococcus faecalis [3] was “>=99.9%”. In addition, the log10CFU/ml in the experiment with Enterococcus faecalis [4] stood at 7.82; in the experiment on Enterococcus faecalis [5], 6.46; in the experiment with Enterococcus faecalis [8], 2.57; in the experiment with Enterococcus faecalis [9], 3.93; in the experiment with Enterococcus faecalis [12], 5.59; in the experiment on Enterococcus faecalis [13], 1.5. Also, the outcome with Enterococcus faecalis [6] and with Enterococcus faecalis [10] was Active. Also, the MBC is more than 1020 µg/mL with Enterococcus faecalis [7] and 2 µg/mL (≈ 5.47 µM) against Enterococcus faecalis [14]. Besides, the MIC with Enterococcus faecalis [7] was 1 µg/mL (≈ 2.74 µM); against Enterococcus faecalis [14] it was 0.5 µg/mL (≈ 1.37 µM).
